Reference: ChEMBL document CHEMBL6078725, “Discovery of novel xanthohumol C derivatives regulating XRCC2 transcription and expression for the treatment of colorectal cancer” (Bioorg Med Chem, 2025)

How the values were obtained:
RKO = assay: Antiproliferative activity against human RKO cells incubated for 48 hrs by MTS assay; assay type: functional, cell-based
HCT-116 = assay: Antiproliferative activity against human HCT-116 cells incubated for 48 hrs by MTS assay; assay type: functional, cell-based; details: HCT-116, 48 h

Structure (SMILES)	IC50 (RKO) [µM]	IC50 (HCT-116) [µM]
CCN(CC)c1ccc(/C=C/C(=O)c2c(OC)cc3c(c2O)C=CC(C)(C)O3)cc1	> 200	> 200
COc1cc2c(c(O)c1C(=O)/C=C/c1cn(C)c3ccccc13)C=CC(C)(C)O2	> 200	> 200
COc1cc2c(c(O)c1C(=O)/C=C/c1ccc([N+](=O)[O-])cc1)C=CC(C)(C)O2	133	163
COc1cc2c(c(O)c1C(=O)/C=C/c1ccc(N3CCCC3)cc1)C=CC(C)(C)O2	> 200	> 200
COc1cc2c(c(OC)c1C(=O)/C=C/c1ccc(O)cc1)C=CC(C)(C)O2	25.6	46.4
COc1ccc(/C=C/C(=O)c2c(OC)cc3c(c2O)C=CC(C)(C)O3)cc1O	18.3	25
COc1cc2c(c(O)c1C(=O)/C=C/c1ccc(N3CCCCC3)cc1)C=CC(C)(C)O2	> 200	200
COc1cc2c(c(OC)c1C(=O)/C=C/c1ccc(Cl)cc1)C=CC(C)(C)O2	9.04	> 12.7
COc1cc2c(c(O)c1C(=O)/C=C/c1ccc(Br)cc1)C=CC(C)(C)O2	157	154
COc1cc2c(c(O)c1C(=O)/C=C/c1ccc(O)cc1)C=CC(C)(C)O2 [XANTHOHUMOL C]	28.5	25.9
